pEC50, pIC50: −log10 of the molar value. Where two headings read alike, the source gives them in different places.
Experiments:
[1] = molecular target: IRAK4 enzyme (Homo sapiens (Human), UniProt Q9NWZ3); assay: IRAK4 Biochemical Assay (TR-FRET, STK1 KinEASE); settings: second part of Table 2 (compounds 33-343); unit inferred; read-out: IC50 IRAK4-HTBS
Experimental: IRAK4 enzyme (Carna Biosciences, Chuo-ku, Kobe, Japan) activity was measured by detecting phosphorylated peptide substrate formation using an antibody against the phosphorylated peptide substrate. This is a time-resolved fluorescence resonance energy transfer (TR-FRET) immunoassay, based on the STK1 KinEASE Assay (Cisbio, Bedford, Mass.). The assay was designed as a simple two-step, endpoint assay (a 5 μl enzyme reaction followed by 5 μl stop and detect Solution) performed in ProxiPlate-384 Plus plates (Perkin Elmer, Waltham, Mass.). […] Compounds diluted in DMSO were spotted into 384 well plates using a Labcyte® Echo 550 Liquid Handling System prior to addition of IRAK4 enzyme and peptide substrate. Reaction solutions were delivered using a Multi-Flo (Bio-Tek Instruments). The enzyme and peptide solution was incubated with compound for 15 minutes at room temp before the reaction was initiated by the addition of ATP. The standard 5 μl reaction mixture contained 500 μM ATP, 2 μM peptide (STK1 Peptide), 0.75 nM of IRAK4 in reaction buffer (50 mM HEPES, pH 7.0, 0.02% NaN3, 0.01% BSA, 0.1 mM Orthovanadate, 5 mM MgCl2, 0.025% NP-40, 1 mM DTT). After 120 min of incubation at room temperature, 5 μl of Stop and Detect Solution (1:100 Cryptate labeled anti-phosphorylated peptide antibody solution and 125 nM Tracer in a 50 mM HEPES pH 7.0 detection buffer containing sufficient EDTA) was added. The plate was then further incubated for 60 minutes at room temperature and read on Envision 2103 Multilabeled reader (PerkinElmer) with excitation/emission/FRET emission at 340 nm/615 nm/665 nm, respectively. Fluorescence intensities at 615 nm and 665 nm emission wavelengths were expressed as a ratio (665 nm/615 nm). Percentage of inhibition was calculated as below: % Inhibition=100×(RatioSample−Ratio0% Inhibition)/(Ratio100% Inhibition−Ratio0% Inhibition)
The 0% inhibition value comes from control wells lacking inhibitor.

[2] = test system: TNFα; assay: IRAK4 Monocyte TNFα Cell Based Assay; parameters: species or system human
Experimental: IRAK4 Monocyte TNFα Cell Based Assay Procedure:
The cell suspension was then plated at a density of 5,000 cells/well onto black 384 well Greiner clear bottom plates. Plates were pre-spotted with test compounds and serially diluted in DMSO where 40 nL/well were delivered using the Echo 550 acoustic liquid dispenser (Labcyte®) for a final DMSO concentration of 0.1%. Plated cells were treated with compound for 1 hour at 37° C. Cells were then stimulated with 50 pg/ml of LPS (Sigma) excluding outside columns of plate used for unstimulated cell control wells. Cells were incubated for an additional 4 hours at 37° C. Cells were then spun out of the media and 5μl of sample were taken and analyzed for total TNFα content using the TR-FRET Human TNFα detection system (CisBio). This system utilizes two labeled antibodies (cryptate and XL665) that bind to two different epitopes of the TNFα molecule and produce FRET signal proportional to the concentration of TNFα in the sample. Detection antibodies are mixed 50:50 and 5 μL were dispensed into each well. Plates were covered with clear seals and incubated at room temp overnight. […] Percent of control was calculated as follows: % Control=100×(RatioSample−Ratio0% Stimulation)/(Ratio100% Stimulation−Ratio0% Stimulation) where unstimulated cells (0% stimulation) were the negative control and stimulated cells (100% stimulation) were used as the positive control.

[3] = Homo sapiens, Monocyte, human monocytes, LPS-stimulated, compounds 1-32, read-out: EC50 TNF
[4] = human monocytes, second part of Table 2 (compounds 33-343), unit inferred, read-out: EC50MONO TNF HTRF

Chain of IRAK4 enzyme (Q9NWZ3 whole entry): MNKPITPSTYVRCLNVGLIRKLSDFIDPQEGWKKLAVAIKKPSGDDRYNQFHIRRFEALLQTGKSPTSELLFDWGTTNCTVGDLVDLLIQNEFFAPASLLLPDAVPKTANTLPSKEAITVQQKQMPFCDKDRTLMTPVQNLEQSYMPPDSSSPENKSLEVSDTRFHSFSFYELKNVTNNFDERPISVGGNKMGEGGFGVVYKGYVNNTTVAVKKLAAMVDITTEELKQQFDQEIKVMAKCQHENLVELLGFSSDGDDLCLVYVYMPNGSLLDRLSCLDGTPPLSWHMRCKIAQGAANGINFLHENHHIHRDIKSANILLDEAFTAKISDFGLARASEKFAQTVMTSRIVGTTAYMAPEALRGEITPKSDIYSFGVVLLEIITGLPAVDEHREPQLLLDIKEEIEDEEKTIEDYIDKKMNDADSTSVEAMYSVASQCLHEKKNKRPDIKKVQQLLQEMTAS

SMILES	pEC50 [2, 4]	other results
CC(=O)NC1CCC(F)(c2nnc(-c3cnc(-c4ccc5cc(C#N)cnn45)cc3NC3COC3)s2)CC1 (single isomer, unassigned) [Example 195, N-(4-(5-(6-(3-cyanopyrrolo[1,2-b]pyridazin-7-yl)-4-(oxetan-3-ylamino)pyridin-3-yl)-1,3,4-thiadiazol-2-yl)-4-fluorocyclohexyl)acetamide]	–	pIC50 [1]: 8.96
CC(=O)NC1CCC(F)(c2nnc(-c3cnc(-c4ccc5cc(C#N)cnn45)cc3NC3COC3)s2)CC1 (single isomer, unassigned) [Example 196, N-(4-(5-(6-(3-cyanopyrrolo[1,2-b]pyridazin-7-yl)-4-(oxetan-3-ylamino)pyridin-3-yl)-1,3,4-thiadiazol-2-yl)-4-fluorocyclohexyl)acetamide]	–	pIC50 [1]: 8.79
CC1(O)CCC(c2nnc(-c3cnc(-c4ccc5cc(C#N)cnn45)cc3NC3COC3)s2)CC1 (single isomer, unassigned) [Example 206, 7-(5-(5-(4-hydroxy-4-methylcyclohexyl)-1,3,4-thiadiazol-2-yl)-4-(oxetan-3-ylamino)pyridin-2-yl)pyrrolo[1,2-b]pyridazine-3-carbonitrile]	–	pIC50 [1]: 9.25
CC(=O)N[C@H]1CC[C@H](c2nnc(-c3cnc(-c4ccc5cc(C#N)cnn45)cc3N[C@H]3CC[C@H](c4nnc(C(F)F)o4)CC3)s2)CC1 [Example 2]	–	pEC50 [2, 3]: 8.10
CC(=O)N[C@H]1CC[C@H](c2nnc(-c3cnc(-c4ccc5cc(C#N)cnn45)cc3NCC#N)s2)CC1 [Example 20, N-((1r,4r)-4-(5-(4-((cyanomethyl)amino)-6-(3-cyanopyrrolo[1,2-b]pyridazin-7-yl)pyridin-3-yl)-1,3,4-thiadiazol-2-yl)cyclohexyl)acetamide]	–	pEC50 [2, 3]: 8.22
CC(=O)N[C@H]1CC[C@H](c2nnc(-c3cnc(-c4ccc5cc(C#N)cnn45)cc3NC3COC3)s2)CC1 [Example 21, N-((1r,4r)-4-(5-(6-(3-cyanopyrrolo[1,2-b]pyridazin-7-yl)-4-(oxetan-3-ylamino)pyridin-3-yl)-1,3,4-thiadiazol-2-yl)cyclohexyl)acetamide]	–	pEC50 [2, 3]: 8.00
COC(=O)NC[C@H]1C[C@H](Nc2cc(-c3ccc4cc(C#N)cnn34)ncc2-c2nnc([C@H]3CC[C@H](NC(C)=O)CC3)s2)C1 [Example 23, methyl (((1R,3r)-3-((5-(5-((1r,4R)-4-acetamidocyclohexyl)-1,3,4-thiadiazol-2-yl)-2-(3-cyanopyrrolo[1,2-b]pyridazin-7-yl)pyridin-4-yl)amino)cyclobutyl)methyl)carbamate]	–	pEC50 [2, 3]: 8.22
CC(=O)N[C@@H]1CCN(c2nnc(-c3cnc(-c4ccc5cc(C#N)cnn45)cc3NC(C)C)s2)C[C@@H]1O [Example 63, N-((3S,4R)-1-(5-(6-(3-cyanopyrrolo[1,2-b]pyridazin-7-yl)-4-(isopropylamino)pyridin-3-yl)-1,3,4-thiadiazol-2-yl)-3-hydroxypiperidin-4-yl)acetamide]	–	pEC50 ([2]; Homo sapiens, Monocyte, human monocytes, second part of Table 2 (compounds 33-343), unit inferred, read-out: EC50MONO TNF HTRF): 7.86
CC(C)Nc1cc(-c2ccc3cc(C#N)cnn23)ncc1-c1nnc(C23CCC(O)(CC2)CC3)s1 [Example 89, 7-(5-(5-(4-hydroxybicyclo[2.2.2]octan-l-yl)-1,3,4-thiadiazol-2-yl)-4-(isopropylamino)pyridin-2-yl)pyrrolo[1,2-b]pyridazine-3-carbonitrile]	7.95	–
CC(C)Nc1cc(-c2ccc3cc(C#N)cnn23)ncc1-c1nnc(N2CC3CC(C2)N3C(=O)C2CCN(C)CC2)s1 [Example 117, 7-(4-(isopropylamino)-5-(5-(6-(1-methylpiperidine-4-carbonyl)-3,6-diazabicyclo[3.1.1]heptan-3-yl)-1,3,4-thiadiazol-2-yl)pyridin-2-yl)pyrrolo[1,2-b]pyridazine-3-carbonitrile]	–	pEC50 ([2]; Homo sapiens, Monocyte, read-out: EC50MONO TNF HTRF): 7.95
C[C@H](C#N)Nc1cc(-c2ccc3cc(C#N)cnn23)ncc1-c1nnc(N2C[C@H]3CC[C@@H](C2)[C@@H]3NC(=O)C2CC2)s1 [Example 148, N-((1R,5S,8S)-3-(5-(4-(((R)-1-cyanoethyl)amino)-6-(3-cyanopyrrolo[1,2-b]pyridazin-7-yl)pyridin-3-yl)-1,3,4-thiadiazol-2-yl)-3-azabicyclo[3.2.1]octan-8-yl)cyclopropanecarboxamide]	8.85	–
CC(C)Nc1cc(-c2ccc3cc(C#N)cnn23)ncc1-c1nnc(N2CC[C@@H](O)C(F)(F)C2)s1 [Example 162, (R)-7-(5-(5-(3,3-difluoro-4-hydroxypiperidin-l-yl)-1,3,4-thiadiazol-2-yl)-4-(isopropylamino)pyridin-2-yl)pyrrolo[1,2-b]pyridazine-3-carbonitrile]	7.58	–
C[C@H](C#N)Nc1cc(-c2ccc3cc(C#N)cnn23)ncc1-c1nnc(N2CC3CC(C2)O3)s1 [Example 178, 7-(5-(5-(6-oxa-3-azabicyclo[3.1.1]heptan-3-yl)-l,3,4-thiadiazol-2-yl)-4-(((R)-1-cyanoethyl)amino)pyridin-2-yl)pyrrolo[1,2-b]pyridazine-3-carbonitrile]	8.31	–
CC(=O)N[C@@H]1CCN(c2nnc(-c3cnc(-c4ccc5cc(C#N)cnn45)cc3NC3COC3)s2)CC1(F)F [Example 183, (R)-N-(1-(5-(6-(3-cyanopyrrolo[l,2-b]pyridazin-7-yl)-4-(oxetan-3-ylamino)pyridin-3-yl)-1,3,4-thiadiazol-2-yl)-3,3-difluoropiperidin-4-yl)acetamide]	8.06	–
CC1(O)CCN(c2nnc(-c3cnc(-c4ccc5cc(C#N)cnn45)cc3NC3COC3)s2)CC1 [Example 187, 7-(5-(5-(4-hydroxy-4-methylpiperidin-1-yl)-1,3,4-thiadiazol-2-yl)-4-(oxetan-3-ylamino)pyridin-2-yl)pyirolo[1,2-b]pyridazine-3-carbonitrile]	7.97	–
CC1(O)CCN(c2nnc(-c3cnc(-c4ccc5cc(C#N)cnn45)cc3NC3CCOCC3)s2)CC1 [Example 188, 7-(5-(5-(4-hydroxy-4-methylpiperidin-l-yl)-1,3,4-thiadiazol-2-yl)-4-((tetrahydro-2H-pyran-4-yl)amino)pyridin-2-yl)pyrrolo[1,2-b]pyridazine-3-carbonitrile]	8.12	–
CC(C)Nc1cc(-c2ccc3cc(C#N)cnn23)ncc1-c1nnc(N2CC[C@@](C)(O)[C@H](F)C2)s1 [Example 191, 7-(5-(5-((3R,$R)-3-fluoro-4-hydroxy-4-methylpiperidin-1-yl)-1,3,4-thiadiazol-2-yl)-4-(isopropylamino)pyridin-2-yl)pyrrolo[1,2-b]pyridazine-3-carbonitrile]	7.64	–
C[C@]1(O)CCN(c2nnc(-c3cnc(-c4ccc5cc(C#N)cnn45)cc3NC3CCOCC3)s2)C[C@@H]1F [Example 204, 7-(5-(5-((3S,4S)-3-fluoro-4-hydroxy-4-methylpiperidin-l-yl)-1,3,4-thiadiazol-2-yl)-4-((tetrahydro-2H-pyran-4-yl)amino)pyridin-2-yl)pyrrolo[1,2-b]pyridazine-3-carbonitrile]	8.46	–
CC(C)Nc1cc(-c2ccc3cc(C#N)cnn23)ncc1-c1nnc(CCN)s1 [Example 212, 7-(5-(5-(2-aminoethyl)-l,3,4-thiadiazol-2-yl)-4-(isopropylamino)pyridin-2-yl)pyrrolo[1,2-b]pyridazine-3-carbonitrile]	6.52	–
CC(C)Nc1cc(-c2ccc3cc(C#N)cnn23)ncc1-c1nnc(C(=O)N2CC[C@H](CO)C2)s1 [Example 221, (S)-7-(5-(5-(3-(hydroxymethyl)pyrrolidine-l-carbonyl)-1,3,4-thiadiazol-2-yl)-4-(isopropylamino)pyridin-2-yl)pyrrolo[1,2-b]pyridazine-3-carbonitrile]	5.63	–

From patent publication US11702414B2, “Thiadiazole IRAK4 inhibitors” (Gilead Sciences, Inc., priority 2018, dated 2023)
